Assay results as given in patent publication US11767520B2, “Compositions and methods for treating lung inflammation” (aTyr Pharma, Inc., priority 2017, dated 2023).

Columns and labels:
[1] = Body weight, BLM rat model (Example 2); assay type: in vivo, rat (male Sprague Dawley); conditions: BLM-induced rats; Nintedanib 60 mg/kg PO daily; Test Article = HRS^FC1 0.1-3 mg/kg IV weekly
Procedure: PBS or BLM was administered under isoflurane anesthesia.
(§1) In-life, body weights were measured and clinical observations were conducted daily. On Day 8 and Day 15, animals were removed from their home cages and placed individually into whole body plethysmography chambers. After a 20-minute acclimatization phase, respiratory parameters were recorded for 10 minutes.

[2] = system: bleomycin-induced respiratory impairment; assay: Respiratory measurements by whole body plethysmography, BLM rat model, combination study (Example 3, Table E6); assay type: in vivo, rat (male Sprague Dawley); parameters: Tidal Volume: unit not given here; conditions: for Expiratory Time / Inspiratory Time / Peak Expiratory Flow / Peak Inspiratory Flow / Tidal Volume / Respiratory Rate / Respiratory Minute Volume: mean; for Respiratory Rate: in breaths/min (unit assumed); for Respiratory Minute Volume: in mL/min (unit assumed)
Procedure: PBS or BLM was administered under isoflurane anesthesia. Excess rats were induced with BLM and used to replace any animals with excessive body weight loss.
All treatments commenced on Day 9.
as §1, with “Days 8, 15” for “Day 8”, “21,” for “Day 15,”, “minutes. Pre-study and on Days 10 and Day 17, whole blood was obtained from the tail vein and processed to serum for measurement of HRS^FC1.” for “minutes.”

[3] = system: bleomycin-induced lung inflammation and fibrosis; assay: Cell counts in BAL fluid, BLM mouse model (Example 1); assay type: in vivo, mouse (male C57Bl/6J); conditions: BLM-induced mice; daily PO from Day 0: dexamethasone 0.25 mg/kg, Nintedanib 60 mg/kg; vs PO vehicle
Procedure: Lung inflammation and fibrosis were induced in male C57Bl/6J mice by oropharyngeal administration of BLM. After the habituation phase mice were randomized based on body weight over the different groups. Under isoflurane anesthesia, 50 μl PBS or BLM was dripped onto the vocal cords facilitating aspiration. Mice were sacrificed at day 21 using a terminal bleed under isoflurane anesthesia.
Daily oral treatments commenced on Day 0, while daily IV treatments commenced on Day 8. Dosing was planned to continue until the day of termination (Day 21), however, due to high mortality in IV treated groups (see results), IV dosing was skipped on Day 19 and Day 20. […] Subsequently, the mice received 8% D20 (Kinemed, Emeryville) drinking water until sacrifice to maintain labeling of newly formed collagen. Body weight was monitored three times a week.
The lungs were flushed two times with 750 μl PBS, combined into one bronchoalveolar lavage (BAL) sample, and stored on ice until centrifugation. The supernatant was collected and stored frozen (<−70° C.). The erythrocytes in the cell pellet were lysed and the remaining cells were resuspended in 100 μl PBS. 20 μl was diluted in trypan blue solution and used for counting the live cells using a hemocytometer.

[4] = system: bleomycin-induced lung fibrosis; assay: Histological fibrosis (modified Ashcroft) score, BLM mouse model (Example 1); assay type: in vivo, mouse (male C57Bl/6J); conditions: BLM-induced mice
Procedure: The five lung lobes were collected and isolated. Wet weight of the medial and accessory lung lobes was recorded. The lobes were then snap frozen and stored at <−70° C. until use for hydroxyproline analysis. The left lung lobe was inflated and fixed for 48 hours in 4% formaldehyde and embedded in paraffin for histological analysis. The cranial lung lobe was snap frozen and stored at −80° C. until shipment to Kinemed for the determination of new collagen formation.
Sections of the left lung lobe were stained using Masson's Trichrome and were scored in a blinded fashion using a modified Ashcroft score (Hubner et al., BioTechniques. 44:507-511, 514-507, 2008). Hydroxyproline content was determined in the medial and accessory lung lobes using acid hydrolysis followed by a chromogenic assay (QuickZyme Biosciences, Leiden, Netherlands). Newly formed collagen was measured in the cranial lung lobe by Kinemed Inc., Emeryville, USA using the fraction of body water enriched in 2H for normalization.

[5] = system: bleomycin-induced lung inflammation; assay: Histological inflammatory cell infiltrate and type II pneumocyte hyperplasia scores, BLM rat model (Example 2); assay type: in vivo, rat (male Sprague Dawley); conditions: BLM-induced rats, Day 22; Nintedanib PO; Test Article = HRS^FC1 1 mg/kg on Days 2, 9 and 16; FIG. 5
Procedure: The five lung lobes were collected and weighed. The right lung lobes were inflated and fixed in 10% neutral buffered formalin and embedded in paraffin for histological analysis. An approximately 50 mg piece of the left lung lobe was snap frozen and stored at −80° C. for potential RNA analysis. The remainder of the lobe was also snap frozen until analyzed for collagen content.
Sections for histology were stained using picrosirius red and were scored in a blinded fashion (1 score for each of the 4 lobes) by a veterinary pathologist using a modified Ashcroft score (Hubner et al., 2008). Hydroxyproline content was determined in the left lung lobe using a mass spectrometry method.
Slides were read by a veterinary pathologist and each of the 4 lobes evaluated was assigned 4 scores [Ashcroft for fibrosis (scores range from 0 to 8), perivascular/peribronchiolar inflammatory cell infiltrate (scores range from 0 to 5), interstitial/alveolar inflammatory cell infiltrate (scores range from 0 to 5), type II pneumocyte hyperplasia (scores range from 0 to 5)].

[6] = Day 8 (prior to any treatments), Ninte. PO + Vehicle IV group

In the case of `COC(=O)c1ccc2c(c1)NC(=O)/C2=C(\Nc1ccc(N(C)C(=O)CN2CCN(C)CC2)cc1)c1ccccc1` [Nintedanib, nintedanib], the “Body weight curves vs respective controls” value [1] is reported as “None of the groups treated with Nintedanib or Test Article had body weight curves that significantly differed”, the “BLM-induced alterations in respiratory parameters” value ([2]; BLM-induced rats, Day 15 and Day 21, Nintedanib, Pirfenidone or Test Article (HRS^FC1)) is reported as “did not significantly impact” and the Expiratory Time [2, 6] is reported as 0.151 s. For the same compound, the Inspiratory Time [2, 6] was 0.115 s, the “Peak Expiratory Flow” value [2, 6] was 18.4 and the “Peak Inspiratory Flow” value [2, 6] was 17.2. The “Tidal Volume” value [2, 6] was 1.19, the “Respiratory Rate” value [2, 6] was 249.0 and the “Respiratory Minute Volume” value [2, 6] was 304.5. For the same compound, the Expiratory Time ([2]; Day 15, Ninte. PO + Vehicle IV) was 0.205 s, the Inspiratory Time ([2]; Day 15, Ninte. PO + Vehicle IV) was 0.122 s and the “Peak Expiratory Flow” value ([2]; Day 15, Ninte. PO + Vehicle IV) was 16.5. For the same compound, the “Peak Inspiratory Flow” value ([2]; Day 15, Ninte. PO + Vehicle IV) was 19.0, the “Tidal Volume” value ([2]; Day 15, Ninte. PO + Vehicle IV) was 1.35 and the “Respiratory Rate” value ([2]; Day 15, Ninte. PO + Vehicle IV) was 223.4. The “Respiratory Minute Volume” value ([2]; Day 15, Ninte. PO + Vehicle IV) was 309.5, the Expiratory Time ([2]; Day 21, Ninte. PO + Vehicle IV) was 0.231 s and the Inspiratory Time ([2]; Day 21, Ninte. PO + Vehicle IV) was 0.127 s. For the same compound, the “Peak Expiratory Flow” value ([2]; Day 21, Ninte. PO + Vehicle IV) was 13.9, the “Peak Inspiratory Flow” value ([2]; Day 21, Ninte. PO + Vehicle IV) was 18.1 and the “Tidal Volume” value ([2]; Day 21, Ninte. PO + Vehicle IV) was 1.44. For the same compound, the “Respiratory Rate” value ([2]; Day 21, Ninte. PO + Vehicle IV) was 203.7, the “Respiratory Minute Volume” value ([2]; Day 21, Ninte. PO + Vehicle IV) was 286.0 and the “Live cells counted in BAL fluid at termination” value [3] was “did not significantly affect”. The “Group mean histological (Ashcroft) score, significance vs respective vehicle” value ([4]; left lung lobe, Day 21, dexamethasone/Nintedanib PO, Test Article = HisRS1^N8 IV) was “did not result in a significant decrease”, the “Overall effects in this experiment” value ([4]; Nintedanib 60 mg/kg/dose from day of BLM instillation) was “no significant effects” and the “Interstitial/alveolar inflammatory cell infiltrate score” value [5] was “no effect on interstitial inflammatory cell infiltrate”.
